Assay results taken from patent publication US4264572A, “X-ray contrast media” (Schering Aktiengesellschaft, priority 1978, dated 1981).

What was measured:
[1] = coefficient of distribution in 1-butanol/tris-HCl buffer; type: physicochemical; settings: pH 7.6, 1-butanol/tris-HCl buffer; meglumine salts
Excerpt: It is furthermore seen from this table that the interaction of the new compounds with proteins is much less than that of the known comparison substances.

rat [2] = test: general tolerance, LD50 i.v. in rat (7 days); type: in vivo; settings: meglumine salts
rat [3] = test: neural tolerance, ED50 pericerebral in rat (24 hours); settings: meglumine salts

CNC(=O)c1c(I)c(C(=O)NCC(=O)Nc2c(I)c(C(=O)O)c(I)c(C(=O)NCCO)c2I)c(I)c(N(C)C(=O)COC)c1I [A, 5-(3-N-methylmethoxyacetamido-5-methylcarbamoyl-2,4,6-triiodine-benzamidoacetamido)-N-(2-hydroxyethyl)-2,4,6-triiodine-isophthalamic acid]
Coefficient of Distribution [1]: < 0.001
Tolerance LD50 i.v. (7 days) (rat [2]): ~ 10,000 mg I/kg of rat
Tolerance ED50 pericerebral (24 hours) (rat [3]): ~ 100 mg I/kg of rat
Protein Bond (proteins): 2.5

CNC(=O)c1c(I)c(NC(C)=O)c(I)c(C(=O)O)c1I [C, 5-acetamido-2,4,6-triiodine-N-methyl-isophthalamic acid]
Coefficient of Distribution [1]: 0.017
Tolerance LD50 i.v. (7 days) (rat [2]): ~ 7,500 mg I/kg of rat
Tolerance ED50 pericerebral (24 hours) (rat [3]): 60 mg I/kg of rat
Protein Bond (proteins): 7.6

CNC(=O)c1c(I)c(C(=O)NCC(=O)Nc2c(I)c(C(=O)O)c(I)c(C(=O)NCCO)c2I)c(I)c(N(C)C(C)=O)c1I [B, 5-(3-N-methyl-acetamido-2,4,6-triiodine-5-methylcarbamoyl-benzamido-acetamido)-N-(2-hydroxyethyl)-2,4,6-triiodine-isophthalamic acid]
Coefficient of Distribution [1]: 0.033
Tolerance LD50 i.v. (7 days) (rat [2]): ~ 7,500 mg I/kg of rat
Tolerance ED50 pericerebral (24 hours) (rat [3]): ~ 40 mg I/kg of rat
Protein Bond (proteins): 6.8
